Data on one compound can be found in patent US4002738A, “Treatment of specified neoplasias” (Abbott Laboratories, priority 1975, dated 1977).

The test system of assay [1] is spontaneous growth in the right lateral mammary region (adenocarcinoma of the mammary gland). Kind of assay: Spontaneous mammary tumor in a female rat, subcutaneous treatment. It counts as in vivo. The protocol: A female rat that had developed a spontaneous growth in the right lateral mammary region was given b.i.d. 10 μg. of the compound of formula I (R'= isobutyl; R = ethyl). […] On day 9, a biopsy was performed and the tumor was identified as adenocarcinoma of the mammary gland. Treatment was stopped after 20 days and the animal was observed periodically. Tumor growth reappeared in the same area with rapid growth observed on day 65 (counted from original treatment beginning). […] Treatment with the above regimen was started again. The tumor regressed again and on day 93, its diameter was 1.2 cm. and its depth was 0.4 cm. […] However, the tumor remained dormant until day 147 (54 days following the last treatment), when significant growing resumed.

The subject of assay [2] is tumors induced by 7,12-dimethylbenzanthracene (DMBA). The assay can be described thus: DMBA-induced tumors in female rats, subcutaneous treatment. It counts as in vivo, rat. As for the experimental part:
In a group of 3 female, 50-day old rats, tumors were induced by intragastric feeding of 20 mg of 7,12-dimethylbenzanthracene (DMBA) in 2 ml. of sesame oil. The animals developed tumors within 10-12 weeks. All animals were maintained on normal rations for 100 days following the DMBA administration, at which time treatment with the compound of formula I (R = ethyl; R' = isobutyl) was started at a b.i.d. regimen Monday through Friday with a single dose on Saturday, the compound being subcutaneously administered as a 0.2% (wt/vol.) solution in isotonic saline.
The first animal carrying 4 tumors of volumes of 5.5, 3, 1 and 1 cc. respectively, was given the above regimen with 10 μg per dose.
In the second animal carrying 3 tumors, each dose contained only 5 μg of the drug.
The third animal had developed 5 tumors, measuring 6.5, 3.5, 1.5, 0.5 and 0.5 cc. respectively. After treatment with 2.5 μg. per dose of the test drug, these tumors were reduced to 1.5, 3.0, 0.5, 0.2 and >0.0 cc. in that sequence.

[3] abbreviates: day 66, regrowth after treatment was stopped on day 20, before second treatment.

The structures appear in SMILES notation.

Turning to `CCNC(=O)[C@@H]1CCCN1C(=O)[C@H](CCCNC(=N)N)NC(=O)[C@H](CC(C)C)NC(=O)[C@@H](CC(C)C)NC(=O)[C@H](Cc1ccc(O)cc1)NC(=O)[C@H](CO)NC(=O)[C@H](Cc1c[nH]c2ccccc12)NC(=O)[C@H](Cc1c[nH]cn1)NC(=O)[C@@H]1CCC(=O)N1`, the “day until which the tumor remained dormant before significant growing resumed” value in assay [1] (counted from original treatment beginning, 54 days following the last treatment) is 147 days. The tumor diameter is 2 cm in assay [1] (day 5 of treatment, 10 μg b.i.d. subcutaneous, diameter before treatment 3 cm); 0.5 cm in assay [1] (day 9 of treatment, 10 μg b.i.d. subcutaneous, diameter before treatment 3 cm); “undetectable size” in assay [1] (day 20 of treatment, 10 μg b.i.d. subcutaneous, diameter before treatment 3 cm); 4 cm in assay [1] (setting [3]); 1.2 cm in assay [1] (day 93, second treatment started day 66 (diameter then 4 cm), 10 μg b.i.d. subcutaneous). The tumor depth worked out at 2 cm in assay [1] (setting [3]) and 0.4 cm in assay [1] (day 93, second treatment started day 66 (depth then 2 cm), 10 μg b.i.d. subcutaneous). Besides, the tumor volume result in assay [2] (first animal, 4 tumors of 5.5, 3, 1 and 1 cc, 10 μg per dose, after 2 weeks, the other two tumors) was “immeasurable volumes”; in assay [2] (first animal, 4 tumors of 5.5, 3, 1 and 1 cc, 10 μg per dose, after 2 weeks, two of the tumors), 1 cc; in assay [2] (second animal, 5 μg per dose, tumor of 3 cc before treatment) it was 11/4; in assay [2] (second animal, 5 μg per dose, tumor of 4 cc before treatment), 2 cc; in assay [2] (third animal, 2.5 μg per dose, first tumor of 0.5 cc before treatment), 0.2 cc; in assay [2] (third animal, 2.5 μg per dose, second tumor of 0.5 cc before treatment) it was > 0.0 cc. Moreover, the tumor volume is listed as 0.5 cc in assay [2] (third animal, 2.5 μg per dose, tumor of 1.5 cc before treatment); 3.0 cc in assay [2] (third animal, 2.5 μg per dose, tumor of 3.5 cc before treatment); 1.5 cc in assay [2] (third animal, 2.5 μg per dose, tumor of 6.5 cc before treatment). For the same compound, the effect on tumor entry in assay [2] (second animal, 3 tumors, 5 μg per dose, one tumor) is on record as “seemingly unaffected”.
